# Results: ChEMBL document CHEMBL3392970, “Novel inhibitors of platelet aggregation” (ACS Med Chem Lett, 2015)
# pIC50: −log10 of the molar value.
# Columns and labels:
# Plasma [1] = experiment: Antiplatelet activity in rat platelet-rich plasma assessed as inhibition of platelet aggregation; type: functional, cell-free
# Plasma [2] = experiment: Antiplatelet activity in human platelet-rich plasma assessed as inhibition of platelet aggregation; type: functional, cell-free
Compound,pIC50 (Plasma [1]),pIC50 (Plasma [2])
CCCC(=O)c1cnn([C@H]2CC[C@H](NC(=O)c3cn(CC(=O)N4CCN(C)CC4)c4ccc(Cl)cc34)CC2)c1C,7.04,6.57
CCCC(=O)c1cnn(C2CCN(NC(=O)c3cn(CC(=O)N4CCN(C)CC4)c4ccc(Cl)cc34)CC2)c1C,7.37,7.60
